Assay results: patent US9649314B2, “Pyrimido[4,5-b]quinoline-4,5(3H,10H)-diones” (NOVARTIS AG, priority 2012, dated 2017)
Where two headings read alike, the source gives them in different places.

Test system: CFTR-Y122X
Test: CFTR-Y122X assay (dual reporter isogenic Hek293 cell lines, Renilla luminescence readthrough)
Format: cell-based
Details: Homo sapiens, HEK293
Source text: Activity of compounds of the present invention was examined in recombinant, dual reporter isogenic Hek293 cell lines (“CFTR-Y122X assay”). The engineered reporter constructs contained the 18 bp sequence stretch corresponding to a common Y122X PTC mutation in CFTR class I mutant patients (see Sermet-Gaudelus, BMC Medicine, 2007, 5(5)). Instead of a tyrosine (Y) in position 122 of the CFTR protein a TGA stop codon interrupts the open reading frame (Y122X) of the corresponding mRNA. This TGA stop codon triplet (followed by the pyrimidine base cytosine) is permissive to aminoglycoside mediated translational readthrough which served as positive control for high throughput screening. A corresponding TAA stop codon variant and a wildtype non mutated construct was used for confirmation and counter screening. The CFTR sequence was sandwiched between an eGFP reporter, and a triple myc tag sequence fused to a full length Renilla reporter. All sequences, including an intron containing one positioned pre-eGFP (b-globin intron) were cloned in frame. The corresponding expression constructs were stably expressed in the isogenic HEK-R4 cell host (Invitrogen Incorp.) and selected by blasticidin resistance. The isogenic integration of the construct minimizes gene dose effects and improves assay reproducibility. Stably integrated single cell derived clones were selected and characterized for aminoglycoside mediated readthrough. […] Readthrough of Y122X accumulates an intracellular localized fusion protein approximately 65.5 kDa in size as controlled by western blot analysis and immunofluorescence using an anti-renilla antibody. The eGFP reporter pre-PTC mutation serves as visual control for genetic stability of the screening clones and minimizes protein degradation of small fusion protein amounts. In the assay, compound concentration was 10 μM. In miniaturized 1536 well format 2000 cells were dispensed in 4 μl/well and incubated for 24 h at 37° C., 5% CO2. 40 nl compounds were placed on the cells with control wells containing 1 ul Paramomycin and 14.4 mM final concentration. Compounds were incubated for 24 h. Renilla Glo substrate (2.5 ul) was added and plates were centrifuged and processed for luminescence measurement using various readers. Activity calculation was done using the equation: A1 (%)=100*(S−NC)/(AC−NC) where AC, NC and S correspond to active controls (injection of Stimulation buffer=100% stimulation), neutral controls (buffer injection which Iloprost EC10) and screening samples (S). NC corresponds to 0% activity whereas AC is 100% activity (14 mM paromomycin). False positive artefacts were removed in confirmation and validation screening using the same assay format followed by counterscreening using the respective wildtype construct (w/o PTC mutation) cell model. Compounds were tested up to 100 μM compound concentration.

[1] = nonsense mutation suppression, 100% = 14 mM paromomycin, 24 h incubation, tested up to 100 μM, read-out: Amax [%]
[2] = nonsense mutation suppression, 24 h incubation
[3] = at the above dose ranges (up to 100 μM), read-out: suppression, % of paromomycin reference activity

| Compound | Emax [1] [%] | AC50 [2] [µM] | other results |
| --- | --- | --- | --- |
| CC(C)c1nc2c(c(=O)c3cc(Cl)ccc3n2C)c(=O)n1-c1ccccc1 [Example 1.24, 7-chloro-2-isopropyl-10-methyl-3-phenylpyrimido[4,5-b]quinoline-4,5(3H,10H)-dione] | 140 | 11.5 |  |
| Cn1c2ccccc2c(=O)c2c(=O)n(C3CCCCCC3)c(-c3ccccc3F)nc21 [3-cycloheptyl-2-(2-fluorophenyl)-10-methylpyrimido[4,5-b]quinoline-4,5(3H,10H)-dione] |  |  | Emax [3]: < 5% |
| CC(C)c1nc2c(c(=O)c3ccccc3n2C)c(=O)n1-c1c(Cl)cccc1Cl [Example 1.17, 3-(2,6-dichlorophenyl)-2-isopropyl-10-methylpyrimido[4,5-b]quinoline-4,5(3H,10H)-dione] | 230 | 8.8 |  |
| C=CCn1c2ccccc2c(=O)c2c(=O)n(-c3ccccc3)c(C(C)C)nc21 [Example 1.2, 10-allyl-2-isopropyl-3-phenylpyrimido[4,5-b]quinoline-4,5(3H,10H)-dione] | 63 |  |  |
| Cn1c2ccccc2c(=O)c2c(=O)n(C3CCCCC3)c(-c3ccc(C(C)(C)C)cc3)nc21 [2-(4-(tert-butyl)phenyl)-3-cyclohexyl-10-methylpyrimido[4,5-b]quinoline-4,5(3H,10H)-dione] |  |  | Emax [3]: < 5% |
| Cn1c2ccccc2c(=O)c2c(=O)n(C3CCCC3)c(-c3ccccc3)nc21 [Example 2.39, 3-cyclopentyl-10-methyl-2-phenylpyrimido[4,5-b]quinoline-4,5(3H,10H)-dione] |  |  | Emax at 50 µM (measured at 50 μM compound concentration (footnote e), read-out: Amax [%]: % nonsense mutation suppression relative to paromomycin reference activity): 31% |
| Cc1ccc2c(c1)c(=O)c1c(=O)n(-c3ccccc3)c(C(C)C)nc1n2C [Example 1.26, 2-isopropyl-7,10-dimethyl-3-phenylpyrimido[4,5-b]quinoline-4,5(3H,10H)-dione] | 254 | 9.6 |  |
| COc1cccc(-n2c(C(C)C)nc3c(c(=O)c4ccccc4n3C)c2=O)c1 [Example 1.22, 2-isopropyl-3-(3-methoxyphenyl)-10-methylpyrimido[4,5-b]quinoline-4,5(3H,10H)-dione] | 23 | 1.9 |  |
| Cn1c2ccccc2c(=O)c2c(=O)n(C3CCCCCC3)c(-c3cccs3)nc21 [Example 2.22, 3-cycloheptyl-10-methyl-2-(thiophen-2-yl)pyrimido[4,5-b]quinoline-4,5(3H,10H)-dione] | 197 | 11 |  |
| COc1ccc(-c2nc3c(c(=O)c4ccccc4n3C)c(=O)n2C2CCCCC2)cc1 [Example 2.27, 3-cyclohexyl-2-(4-methoxyphenyl)-10-methylpyrimido[4,5-b]quinoline-4,5(3H,10H)-dione] |  |  | Emax at 25 µM (measured at 25 μM compound concentration (footnote a), read-out: Amax [%]: % nonsense mutation suppression relative to paromomycin reference activity): 97% |
| CC(C)c1nc2c(c(=O)c3ccccc3n2C)c(=O)n1-c1cccc(Cl)c1 [Example 1.21, 3-(3-chlorophenyl)-2-isopropyl-10-methylpyrimido[4,5-b]quinoline-4,5(3H,10H)-dione] | 167 | 10.2 |  |
| CCCCCc1nc2c(c(=O)c3ccccc3n2C)c(=O)n1C1CCCC1 [Example 2.18, 3-cyclopentyl-10-methyl-2-pentylpyrimido[4,5-b]quinoline-4,5(3H,10H)-dione] | 222 | 9.9 |  |
| CN(C)c1nc2[nH]c3ccccc3c(=O)c2c(=O)n1-c1ccccc1 [Example 3.2, 2-(dimethylamino)-3-phenylpyrimido[4,5-b]quinoline-4,5(3H,10H)-dione] | 294 | 11.6 |  |
| CC(C)c1nc2c(c(=O)c3ccccc3n2CCN)c(=O)n1-c1ccccc1 [Example 1.41, 10-(2-aminoethyl)-2-isopropyl-3-phenylpyrimido[4,5-b]quinoline-4,5(3H,10H)-dione] | 198 | 19.5 |  |
| Cn1c2ccccc2c(=O)c2c(=O)n(C3CCCCC3)c(-c3cccc([N+](=O)[O-])c3)nc21 [Example 2.19, 3-cyclohexyl-10-methyl-2-(3-nitrophenyl)pyrimido[4,5-b]quinoline-4,5(3H,10H)-dione] | 248 | 11.6 |  |
